# Patent US20230374177A1, “CYTOSOLIC MICROPARTICLES, PHAGOCYTIC CELLS COMPRISING THE SAME, AND METHODS FOR TREATING DISEASE COMPRISING THE SAME” (Florida State University Research Foundation, Inc., priority 2022, published 2023)
# Tested on: RAW264.7 macrophages
# Assay: Effects of factors on phagosomal rupture at 22° C.
# Type: cell-based
# Conditions: 22° C. cold shock; chloroquine 100 μM 30 min, tetrandrine 5 μM 30 min, colchicine 5 μM 3 h, LLOMe 1 mM 30 min, hypotonic shock 0.6×PBS
# Protocol: Incubation of macrophages with microparticles. […] A prewarmed suspension of macrophages in the complete medium (3.5×10^5 cells/mL, 1 mL, 37° C.) supplemented with LPS (1 μg/mL) was added into a chamber and incubated (5% CO2, 37° C.) for the specified period.
# Control. […] After 3 h, the complete medium was replaced with PBS (1 mL, 22° C.) and maintained for 2 min before being imaged.
# Hypotonic shock. 0.6×PBS was prepared by mixing PBS with H2O (volume ratio=6:4). […] After 3 h, the complete medium was replaced with the 0.6×PBS (1 mL, 22° C.) and maintained for 2 min before being imaged.
# Chloroquine. […] After 2.5 h, chloroquine (10 mM in DMEM) was added to the culture to reach 100 μM and further incubated (5% CO2, 37° C.) for 30 min. The complete medium was replaced with PBS (1 mL, 22° C.) and maintained for 2 min before being imaged.
# Tetrandrine. […] After 2.5 h, tetrandrine (5 mM in DMSO) was added to the culture to reach 5 μM and further incubated (5% CO2, 37° C.) for 30 min. The complete medium was replaced with PBS (1 mL, 22° C.) and maintained for 2 min before being imaged.
# Colchicine. […] After 3 h, colchicine (2.5 mM in DMEM) was added to the culture at 5 μM and further incubated (5% CO2, 37° C.) for 3 h. The complete medium was replaced with PBS (1 mL, 22° C.) and maintained for 2 min before being imaged.
# LLOMe. […] After 2.5 h, LLOMe (10 mM in DMEM) was added to the culture at 1 mM and further incubated (5% CO2, 37° C.) for 30 min. The complete medium was replaced with PBS (1 mL, 22° C.) and maintained for 2 min before being imaged.
# For each factor, an experiment was conducted to study its effect. […] Exposure of the macrophages to each factor was conducted either during or before the cold shock.
row,SMILES,effect on percentage of phagosomal rupture at 22° C. compared to the control
1,COc1cc2c(c(OC)c1OC)-c1ccc(OC)c(=O)cc1[C@@H](NC(C)=O)CC2 [Colchicine],insignificant
2,"COC(=O)[C@H](CC(C)C)NC(=O)[C@@H](N)CC(C)C.Cl [LLOMe, L-Leucyl-L-leucine methyl ester hydrochloride]",significantly increased
3,CCN(CC)CCCC(C)Nc1ccnc2cc(Cl)ccc12 (stereo not drawn) [Chloroquine],did not induce a significant effect
